Measurements: patent EP0159254A1, “Derivatives of omega-mercaptopropanamide and their salts, their preparation, their use as medicines and compositions containing them” (ROUSSEL-UCLAF, priority 1984, dated 1985)

Target: T1, enképhalinase (Rattus norvegicus, UniProt P07861)
T1 construct: L'activité de l'enképhalinase est déterminée dans une fraction membranaire de striatum de rat; from tissue; host or cells: rat striatum, particulate (membrane) fraction
T1 sequence (P07861 1-750): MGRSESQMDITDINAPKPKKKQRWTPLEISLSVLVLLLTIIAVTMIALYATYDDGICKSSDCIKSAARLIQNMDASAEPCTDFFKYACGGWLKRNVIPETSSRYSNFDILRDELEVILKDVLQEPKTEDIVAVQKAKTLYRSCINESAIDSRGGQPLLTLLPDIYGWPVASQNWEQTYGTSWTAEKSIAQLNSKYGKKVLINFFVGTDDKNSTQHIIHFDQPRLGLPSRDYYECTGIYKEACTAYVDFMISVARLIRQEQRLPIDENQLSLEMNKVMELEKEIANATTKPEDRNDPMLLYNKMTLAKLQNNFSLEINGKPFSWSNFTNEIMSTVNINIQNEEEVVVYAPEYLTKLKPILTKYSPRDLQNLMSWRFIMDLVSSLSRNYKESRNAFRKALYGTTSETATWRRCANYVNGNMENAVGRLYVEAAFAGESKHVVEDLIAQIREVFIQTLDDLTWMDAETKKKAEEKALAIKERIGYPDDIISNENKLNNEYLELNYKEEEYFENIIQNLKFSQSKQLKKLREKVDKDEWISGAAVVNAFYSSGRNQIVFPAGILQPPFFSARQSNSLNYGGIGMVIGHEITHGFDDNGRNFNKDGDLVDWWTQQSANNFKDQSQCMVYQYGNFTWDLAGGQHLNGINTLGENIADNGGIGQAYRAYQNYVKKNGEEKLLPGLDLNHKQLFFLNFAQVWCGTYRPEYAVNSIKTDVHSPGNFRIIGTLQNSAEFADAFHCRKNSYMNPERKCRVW
Assay: Enkephalinase assay and determination of the effect of inhibitors (hydrolysis of tritiated leucine-enkephalin)
Assay type: biochemical
Conditions: membrane fraction of rat striatum; 20 nanomoles tritiated leucine-enkephalin, 1 mM puromycin, TRIS buffer, 15 min at 25°C; read-out: Inhibition de l'enképhalinase CI 50
Procedure: 1) Dosage de l'enképhalinase et détermination de l'effet des inhibiteurs.
L'activité de l'enképhalinase est déterminée dans une fraction membranaire de striatum de rat.
Les striatum sont prélevés sur glace et homogénéisés en tampon TRIS 0.05M pH 7,4 (20 fois le volume). Après une première centrifugation à 1000 g, la fraction particulaire est obtenue à la suite de deux centrifugations de 10 minutes à 20 000 g. Le culot est ensuite mis en suspension dans un tampon TRIS et conservé à 4°C. Le dosage des protéines est effectué selon la méthode au bleu de Comassie.
Après une préincubation de 15 minutes à 25°C, une aliquote de protéines est incubée pendant 15 minutes à 25°C en présence de 20 nanomoles de leucine-enképhaline tritiée (sur le premier acide aminé) préalablement purifiée, d'1 mM de puromycine et du produit à tester en tampon TRIS. La réaction d'hydrolyse est stoppée par addition d'acide chlorhydrique 0,2N et l'incubat subit une déprotéinisation par la chaleur (15 minutes à 95°C).
Les métabolites tritiés obtenus par hydrolyse sont séparés de l'enképhaline par chromatographie sur colonne de porapak Q : ils sont élués avec du tampon TRIS tandis que l'enképhaline est retenue sur la colonne et recueillie ensuite en phase éthanolique.
L'activité des différents produits est exprimée en concentrations inhibitrices 50 %.

| Molecule | IC50 |
| --- | --- |
| O=C(NC1CCCCC1)C(CS)Cc1ccccc1 (stereo not drawn) [Exemple 2, N-cyclohexyl α-(mercaptométhyl) benzène propanamide] | 0.1 µM |
| O=C(NCCc1ccccc1)C(CS)Cc1ccccc1 (stereo not drawn) [Exemple 8, α -(mercaptométhyl) N-(2-phényl éthyl) benzène propanamide] | 1 µM |
| Chlorhydrate d'α-(mercaptométhyl) N-/(pyridin-3-yl) méthyl/ benzène propanamide [Exemple 22] | 0.08 µM |

Second part, the molecule after the results:

| IC50 | Molecule |
| --- | --- |
| 0.08 µM | O=C(NCc1ccncc1)C(CS)Cc1ccccc1 (stereo not drawn) [Exemple 24, Chlorhydrate d'α-(mercaptométhyl) N-/(pyridin-4-yl) méthyl/ benzène propanamide] |
| 0.1 µM | O=C(NCc1ccccn1)C(CS)Cc1ccccc1 (stereo not drawn) [Exemple 26, Chlorhydrate d'α-(mercaptométhyl) N-/(Pyridin-2-yl) méthyl/benzène propanamide] |
